Data reported in patent US12116358B2, “Substituted indoles and methods of use thereof” (EPIZYME, INC., priority 2018, dated 2024).

System: H3K36me3 in A549 cells
Experiment: In-Cell Western (ICW) assay of SETD2 inhibitors (A549 assay)
Format: cell-based, human
Details: A549 cells; read-out: SETD2 A549
Protocol: In-Cell Western (ICW) Assay of SETD2 Inhibitors (A549 Assay)
Representative Compounds of the Disclosure were tested in the A549 assay according the following protocol.
1. Reagents and Consumables:
Prepare plates with compounds. Seed A549 cells to the plates with compounds, 4,000 cells/well, 50 μl/well. Put the plates at room temperature on a non-vibrating surface for 20 minutes before placing in the incubator. Incubate the plate at 37° C. incubator with CO2 for 3 days. Remove plate from incubator and bring to room temperature. Blot media out of the plate and add 50 μL of ice cold 100% methanol. Incubate 30 minutes at room temperature. Remove methanol by aspiration. Wash 3× with PBST. Add 50 μL of Blocking Buffer+0.1% Tween 20. Incubate 1 hour. Remove Blocking Buffer, wash 3× with PBST. Add 20 μL of H3K36me3 (1:1000 dilution). […] Incubate overnight at 4° C. Wash plate 5× with PBS-T. Add 20 μL of DRAQ5 (1:1000) and IRDye 800CW Goat anti-Rabbit IgG (1:500). Incubate for 1 hour in the dark. Wash plate 5× with PBS-T. Wash plate 3× with water. Dry by blotting on paper towel, then centrifuge plate upside down on a thin layer of paper towels for 1 minute at 1000 rpm to remove excess reagent. Leave plate uncovered for ˜10 minutes out of direct light before reading. Read on Licor instrument.
4. Licor Instrument Settings:
Preset: Plate; Resolution: 84 μm; Quality: low; Focus offset: 4.0; 700 channel intensity: 2; and 800 channel intensity: 3.

SMILES	IC50
Cc1ccc(F)c2cc(C(=O)NC3CCCC(N4CCOCC4)C3)[nH]c12 (centres unmarked) [compound 381]	> 2 µM
Cc1cccnc1C(NC(=O)c1cc2nccc(C)c2[nH]1)C1CC1 (centres unmarked) [compound 599]	> 25 µM
Cc1cccnc1[C@@H](NC(=O)c1cc2cccc(C)c2[nH]1)C1CC1 [compound 613]	> 25 µM
CC(=O)N(C)[C@@H]1CCN([C@@H]2CCC[C@@H](NC(=O)c3cc4c(F)ccc(C)c4[nH]3)C2)C1 [compound 849]	> 2 µM
Cc1ccc(F)c2cc(C(=O)NC3CCCC(N4CCN5C(=O)CCC5C4)C3)[nH]c12 (centres unmarked) [compound 863]	0.02 µM
Cc1ccc(F)c2cc(C(=O)N[C@@H]3CCC[C@@H](N4CCN5C(=O)CCC5C4)C3)[nH]c12 (some centres unmarked) [compound 864]	1.2 µM
Cc1ccc(F)c2cc(C(=O)NC3CCCC(N4CCN5C(=O)CCC5C4)C3)[nH]c12 (centres unmarked) [compound 920]	0.1 µM
Cc1ccc(F)c2cc(C(=O)N[C@@H]3CCC[C@@H](N4CCN5C(=O)CC[C@@H]5C4)C3)[nH]c12 [compound 921]	1 µM
Cc1ccc(F)c2cc(C(=O)NC3CCCC(c4nnc(CN(C)C)o4)C3)[nH]c12 (centres unmarked) [compound 954]	> 2 µM

The next lines start with the values.

IC50	SMILES
> 2 µM	Cc1ccc(F)c2cc(C(=O)NC3CCCC(N4CCOCC4)C3)[nH]c12 (centres unmarked) [compound 374]
> 2 µM	Cc1ccc(F)c2cc(C(=O)NC3CCCC(N4CCN(C)C(=O)C4)C3)[nH]c12 (centres unmarked) [compound 382]
24.6 µM	Cc1cccc2cc(C(=O)NCc3ccccc3N3CCCC3)[nH]c12 [compound 528]
> 2 µM	Cc1ccc(F)c2cc(C(=O)N[C@@H]3CCC[C@@H](N4CCN(S(C)(=O)=O)CC4)C3)[nH]c12 [compound 851]
0.01 µM	Cc1ccc(F)c2cc(C(=O)NC3CCCC(N4CCN5C(=O)CCC5C4)C3)[nH]c12 (centres unmarked) [compound 922]

Same assay, conditions: Homo sapiens, A549, read-out: SETD2 A549

SMILES	IC50
Cc1ccc(F)c2cc(C(=O)N[C@@H]3CCC[C@H](N4CCN(C)C(=O)C4)C3)[nH]c12 [compound 169]	0.3 µM
CC(=O)N(C)C1CCN([C@@H]2CCC[C@@H](NC(=O)c3cc4c(F)ccc(C)c4[nH]3)C2)C1 (some centres unmarked) [compound 385]	> 2 µM
Cc1cccnc1C(NC(=O)c1cc2c(F)ccc(C)c2[nH]1)C1CC1 (centres unmarked) [compound 462]	6.3 µM
Cc1cccnc1[C@H](NC(=O)c1cc2cccc(C)c2[nH]1)C1CC1 [compound 463]	6.4 µM
Cc1cccnc1C(NC(=O)c1cc2cccc(C)c2[nH]1)C1CC1 (centres unmarked) [compound 475]	8.9 µM
Cc1cccc2cc(C(=O)Nc3ccccc3)[nH]c12 [compound 479]	9.5 µM
Cc1cccnc1C(NC(=O)c1cc2cc(F)cc(C)c2[nH]1)C1CC1 (centres unmarked) [compound 497]	13.8 µM
Cc1cccc2cc(C(=O)N[C@H]3CC[C@@H](NC(=O)CCN)CC3)[nH]c12 [compound 592]	> 25 µM
CC(=O)N(C)[C@H]1CCN([C@H]2CCC[C@@H](NC(=O)c3cc4c(F)ccc(C)c4[nH]3)C2)C1 [compound 841]	0.1 µM
CC(=O)N(C)[C@H]1CCN([C@@H]2CCC[C@@H](NC(=O)c3cc4c(F)ccc(C)c4[nH]3)C2)C1 [compound 842]	> 2 µM
Cc1ccc(F)c2cc(C(=O)N[C@@H]3CCC[C@@H](c4ccncc4)C3)[nH]c12 [compound 912]	> 2 µM
Cc1ccc(F)c2cc(C(=O)N[C@@H]3CCC[C@H](c4ccncc4)C3)[nH]c12 [compound 913]	> 2 µM
Cc1ccc(F)c2cc(C(=O)N[C@H]3CCC[C@@H](c4ccncc4)C3)[nH]c12 [compound 914]	0.3 µM
Cc1ccc(F)c2cc(C(=O)N[C@H]3CCC[C@H](c4ccncc4)C3)[nH]c12 [compound 915]	> 2 µM

Same assay, conditions: Homo sapiens; A549 cells; read-out: SETD2 A549

IC50	SMILES
10.8 µM	CCc1ccc(C)c2[nH]c(C(=O)NC(CCC(=O)N3CCOCC3)c3ncccc3C)cc12 (centres unmarked) [compound 485]
18.9 µM	Cc1nccnc1C(NC(=O)c1cc2cccc(C)c2[nH]1)C1CC1 (centres unmarked) [compound 518]

Biological target: T1, SETD2(1434-1711) (Homo sapiens, UniProt Q9BYW2)
T1 construct: SETD2 (1434-1711) Assay; catalogue N/A
T1 sequence (Q9BYW2 1434-1711): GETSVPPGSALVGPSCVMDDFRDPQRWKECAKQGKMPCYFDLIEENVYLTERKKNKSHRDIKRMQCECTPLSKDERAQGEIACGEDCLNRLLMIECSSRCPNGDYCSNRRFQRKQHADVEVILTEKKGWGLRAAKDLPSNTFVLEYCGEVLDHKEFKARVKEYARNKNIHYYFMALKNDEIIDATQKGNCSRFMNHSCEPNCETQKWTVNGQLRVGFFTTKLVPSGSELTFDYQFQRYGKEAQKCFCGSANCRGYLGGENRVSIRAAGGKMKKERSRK
Experiment: SETD2 (1434-1711) assay
Format: biochemical
Details: read-out: SETD2 (1434-1711)

SMILES	IC50
Cc1cccc2cc(C(=O)N[C@H]3CC[C@H](NC(=O)C(F)(F)F)CC3)[nH]c12 [compound 791]	> 200 µM
Cc1cccc2cc(C(=O)Nc3cn4ccccc4n3)[nH]c12 [compound 796]	> 200 µM
CCOC(=O)[C@@H]1CCCC[C@H]1NC(=O)c1cc2cccc(C)c2[nH]1 [compound 797]	> 200 µM
Cc1cccc2cc(C(=O)N3CCCC(N(C)C)C3)[nH]c12 (centres unmarked) [compound 799]	> 200 µM
CNC1CCCN(C(=O)c2cc3cccc(C)c3[nH]2)C1 (centres unmarked) [compound 800]	> 200 µM
Cc1cccnc1C(NC(=O)c1cc2cccc(C(C)C)c2[nH]1)C1CC1 (centres unmarked) [compound 802]	> 200 µM
Cc1cccc2cc(C(=O)Nc3ncc4ccccc4n3)[nH]c12 [compound 804]	> 200 µM
CNC(=O)CC(NC(=O)c1cc2cccc(C)c2[nH]1)c1cccnc1 (centres unmarked) [compound 809]	> 200 µM
Cc1cccc2cc(C(=O)NCC(CN(C)C)c3ccccc3)[nH]c12 (centres unmarked) [compound 815]	> 200 µM
Cc1cccc2cc(C(=O)NC3CCC(c4ccccc4)NC(=O)C3)[nH]c12 (centres unmarked) [compound 816]	> 200 µM
Cc1cccc2cc(C(=O)NCCc3ccccc3-c3ccccc3)[nH]c12 [compound 818]	> 200 µM
Cc1cccc2cc(C(=O)N3CCC4(CCc5ccccc54)C3)[nH]c12 (centres unmarked) [compound 820]	> 200 µM
Cc1cccnc1C(NC(=O)c1cc2cccc(CC3CCC3)c2[nH]1)C1CC1 (centres unmarked) [compound 821]	> 200 µM
Cc1ccc(F)c2cc(C(=O)N[C@@H]3CCC[C@@H](N4CCCNC(=O)C4)C3)[nH]c12 [compound 822]	8.3 µM
CCOC(=O)N1CCN([C@@H]2CCC[C@@H](NC(=O)c3cc4c(F)ccc(C)c4[nH]3)C2)CC1 [compound 825]	1.2 µM
Cc1ccc(F)c2cc(C(=O)N[C@@H]3CCC[C@H](N4CCN(C(=O)C5CC5)CC4)C3)[nH]c12 [compound 830]	0.04 µM
Cc1ccc(F)c2cc(C(=O)N[C@@H]3CCC[C@@H](N4CCN(C(=O)C5CC5)CC4)C3)[nH]c12 [compound 831]	2.3 µM
CC(=O)NC1CCN([C@@H]2CCC[C@@H](NC(=O)c3cc4c(F)ccc(C)c4[nH]3)C2)C1 (some centres unmarked) [compound 834]	5 µM
CCN1CCN(C2CCCC(NC(=O)c3cc4c(F)ccc(C)c4[nH]3)C2)CC1=O (centres unmarked) [compound 835]	0.1 µM
CCN1CCN([C@@H]2CCC[C@@H](NC(=O)c3cc4c(F)ccc(C)c4[nH]3)C2)CC1=O [compound 836]	4 µM
Cc1cccc2cc(C(=O)NCc3ccccc3Cl)[nH]c12 [compound 1153]	> 200 µM
Cc1cccc2cc(C(=O)NC(C)c3ccc(-n4cncn4)cc3)[nH]c12 (centres unmarked) [compound 1155]	17.2 µM

The remaining lines, values ahead:

IC50	SMILES
> 200 µM	Cc1cccc2cc(C(=O)NC(C)c3cccc(C(F)(F)F)c3)[nH]c12 (centres unmarked) [compound 790]
> 200 µM	Cc1cccc2cc(C(=O)N3CCCC(N)C3)[nH]c12 (centres unmarked) [compound 794]
> 200 µM	Cc1cccc2cc(C(=O)Nc3cccnc3)[nH]c12 [compound 795]
> 200 µM	Cc1cccc2cc(C(=O)N3CCCC(NC(=O)CCN)C3)[nH]c12 (centres unmarked) [compound 798]
> 200 µM	Cc1ccccc1C(NC(=O)c1cc2cccc(C)c2[nH]1)C1CC1 (centres unmarked) [compound 801]
> 200 µM	CCc1cccc2cc(C(=O)NC(c3ccccn3)C3CC3)[nH]c12 (centres unmarked) [compound 803]
> 200 µM	Cc1cccc2cc(C(=O)N3CCn4cncc4C3)[nH]c12 [compound 810]
> 200 µM	Cc1cccc2cc(C(=O)N3CCn4cnnc4C3)[nH]c12 [compound 811]
> 200 µM	Cc1cccc2cc(C(=O)N3CCn4ncnc4C3)[nH]c12 [compound 812]
> 200 µM	Cc1cccc2cc(C(=O)N3CCC(=O)c4ccccc4C3)[nH]c12 [compound 814]
> 200 µM	Cc1cccc2cc(C(=O)NC(c3ncccc3Cc3ccccc3)C3CC3)[nH]c12 (centres unmarked) [compound 817]
7.6 µM	Cc1ccc(F)c2cc(C(=O)N[C@@H]3CCC[C@@H](N4CCN(CC(F)(F)F)CC4)C3)[nH]c12 [compound 827]
1.5 µM	Cc1ccc(F)c2cc(C(=O)N[C@@H]3CCC[C@@H](N4CCN(C(=O)N5CCOCC5)CC4)C3)[nH]c12 [compound 829]
0.6 µM	Cc1ccc(F)c2cc(C(=O)N[C@@H]3CCCC(N4CCC(=O)N(C)CC4)C3)[nH]c12 (some centres unmarked) [compound 832]
9.7 µM	Cc1ccc(F)c2cc(C(=O)N[C@@H]3CCC[C@@H](N4CCn5ccnc5C4)C3)[nH]c12 [compound 853]
3 µM	Cc1ccc(F)c2cc(C(=O)NC3CCCC(N4CCn5c(n[nH]c5=O)C4)C3)[nH]c12 (centres unmarked) [compound 1106]
